Experimental data as given in patent publication US9487566B2, “Method for purifying protein” (KYOWA HAKKO KIRIN CO., LTD, priority 2011, dated 2016).

Experiments:
[1] = test system: neuraminidase; assay: Capillary electrophoresis of Erythropoietin from culture fluid held with amino acids (bound sialic acids); format: biochemical; settings: 1 mol/L amino acid solution mixed in equivalent amount, 25° C. for 7 days, compared with purified water / initiation
Method: Purified water, 1 mol/L alanine solution, 1 mol/L arginine solution, or 1 mol/L glycine solution was mixed with the culture fluid containing Erythropoietin in an equivalent amount, respectively and then held at 25° C. for 7 days. Thereafter, Erythropoietin was purified using an anti-Erythropoietin antibody-immobilized affinity chromatography column, and the number of sialic acids binding to Erythropoietin was measured by capillary electrophoresis [Biol. Pharm. Bull. 33(9) 1596-1599 (2010)].

[2] = test system: protease; settings: glycine 0.5 mol/L or arginine 0.4 mol/L final, 25° C. for 6 days
[3] = test system: neuraminidase; assay: Neuraminidase activity after addition of amino acids to Antithrombin eluate (enzyme assay); format: biochemical, CHO cell
Method: The Antithrombin concentration and the neuraminidase activity in the washing fraction before elution and in a particular range of eluate were measured by reversed-phase HPLC method [J. Chromatography B, 662, 209 (1994)] and enzyme assay [Glycobiology, 3, 455 (1993)], respectively.
Arginine hydrochloride or glycine of a final concentration of 0 to 500 mmol/L was added to the aqueous solution containing Antithrombin obtained in the elution process of Comparative Example 1. The neuraminidase activity in each solution was measured in the same manner as in Example 1.

[4] = test system: Neuraminidase (manufactured by Nacalai Tesque); settings: final concentration 1.0 mol/L, neuraminidase 0.0005 U/mL, 37° C. for 3 hours
Method: As a control group, purified water was added in the same amount as the neuraminidase. Glycine was added at a final concentration of 1.0 mol/L, or purified water as a control, and held at 37° C. for 3 hours.

[5] = Storage stability of purified Protein S by SDS-PAGE; format: physicochemical; settings: held at 37° C. for 3 days vs frozen at −20° C.
Method: The Protein S-Example 16 and the Protein S-Comparative Example 3 were held at 37° C. for 3 days, or they were also frozen at −20° C., respectively.

Compound | number of sialic acids binding to Erythropoietin after holding [1] | conversion of Protein S into the cleaved form [2] | relative neuraminidase activity (activity at 0 mmol/L amino acid regarded as 1.0) ([3]; addition of 100 mmol/L) | change on storage (cleaved form, SDS-PAGE) [5] | further results
N=C(N)NCCC[C@H](N)C(=O)O [arginine] | the number of bound sialic acids was equivalent | conversion of Protein S into the cleaved form was inhibited | about 0.2 |  | relative neuraminidase activity (activity at 0 mmol/L amino acid regarded as 1.0) ([3]; addition of 200 mmol/L or more, below the detection limit): 0
NCC(=O)O [glycine] | the number of bound sialic acids was maintained | conversion of Protein S into the cleaved form was inhibited | about 0.2 |  | electrophoretic profile of Protein S (basic shift by loss of sialic acid) [4]: major bands were found in a more acidic region than the band of purified water-added one; relative neuraminidase activity (activity at 0 mmol/L amino acid regarded as 1.0) ([3]; addition of 300 mmol/L or more, below the detection limit): 0
Protein S-Example 16: Protein S obtained by the method described in Example 16 (purified using the mixed mode carrier) |  |  |  | no change | 
Protein S-Comparative Example 3: Protein S obtained by the method described in Comparative Example 3 (purified without using the mixed mode carrier) |  |  |  | the cleaved form was increased | 
C[C@H](N)C(=O)O [alanine] | the number of bound sialic acids was maintained |  |  |  | 
